{
  "source": "patent US20150290234A1",
  "about": "“TARGETED INTRACELLULAR DELIVERY OF ANTIVIRAL AGENTS” (BBB Holding B.V., priority 2007, published 2015)",
  "molecules": {"B1": {"name": "diphtheria toxin receptor (DTR) expressed on LLC-PK1 cells (porcine kidney epithelial cells) (receptor, UniProt Q01580 63-148, looked up)", "chain": "DLEEADLDLLRADFSSKPQALATPSKEERGKRKKKGKGLGKKRDPCLRKYKDFCIHGECKYVKELRAPSCICHPGYHGERCHGLSL", "notes": "whole, on cells; also called HB-EGF"}, "B2": {"name": "diphtheria toxin receptor (DTR) on bovine brain capillary endothelial cells (BCEC) (receptor)", "chain": "B1 chain with D6N, L10F, D13A, D44N, K49R, A67V, S69T", "notes": "whole, on cells; also called HB-EGF precursor"}, "B3": {"name": "diphtheria toxin receptor (DTR) on human glioblastoma cells (receptor, UniProt Q99075 63-148, looked up)", "chain": "B1 chain with E3Q, A12V, D13T, F14L, S25N, R29H", "notes": "as for B2"}},
  "key": {"viral DNA polymerase": {"system": "viral DNA polymerase", "conditions": "cited from earlier work"}, "CMV-infected cells": {"system": "CMV-infected cells", "conditions": "cited from earlier work"}, "[1]": {"conditions": "cited from earlier work"}, "[2]": {"conditions": "cited from earlier work", "remark": "listed apart in the source"}, "YFV": {"system": "YFV", "assay": "microbe, parasite or virus in culture", "format": "cell-based", "conditions": "Yellow fever virus, Vero, 120 h, read-out: EC50 for inhibition of RNA synthesis [EC50 RNA]"}, "LLC-PK1 cells [3]": {"system": "LLC-PK1 cells", "assay": "MTT-assay", "conditions": "10 mg/mL RBV, after 5 h, found to be toxic"}, "influenza": {"system": "influenza", "conditions": "therapy started within 48 hours of the onset of symptoms; cited from earlier work"}, "LLC-PK1 cells [4]": {"system": "LLC-PK1 cells", "assay": "Cell uptake and localization on coverslips, fluorescence microscope", "format": "cell-based, porcine", "conditions": "FIG. 1", "description": "(§1) Cells with a known expression of the DTR were used from several species and origins, including porcine kidney epithelial cells (LLC-PK1), bovine brain capillary endothelial cells (BCEC), monkey kidney fibroblast cells (COS-1), and human glioblastoma cells. In particular, LLC-PK1 cells were incubated for 1 h in 24-wells plates on 400 microliter DMEM+FCS supplemented with 100 microgram/ml heparin, before 5 microgram CRM197-FITC or HRP-FITC was added to the well. Two hours later the cells were washed 3 times and the cells were lysated in 100 microliter 0.1 N NaOH, and fluorescence was determined at 480/530 nm in a fluostar plate reader. Cell protein per well was determined with a Biorad DC assay and fluorescence in the cell lysate was calculated per mg cell protein. In a separate group of cells, an access of 100 microgram free CRM197 was added to the well, 30 minutes before the CRM197-FITC conjugate was added to the medium. […] In a separate set of experiments, LLC-PK1 cells were cultured in similar conditions on coverslips and exposed to CRM197-FITC, HRP-FITC or sodium fluorescein. After fixation and mounting with vectashield with DAPI for nuclear staining, the coverslips were analyzed on a fluorescence microscope and photographed. […] Identical results were found on BCEC, COS-1 and human glioblastoma cells, also after several time points (up to 24 hours after exposure)."}, "[5]": {"assay": "Pharmacokinetics of sodium fluorescein after intravenous bolus", "conditions": "rats, 1 mg intravenous bolus"}, "[6]": {"biological_target": "diphtheria toxin receptor (DTR) expressed on LLC-PK1 cells (porcine kidney epithelial cells) (porcine) (UniProt Q01580)", "assay": "cell-based or functional assay"}, "[7]": {"biological_target": "T1, DTR expressed on LLC-PK1 cells (Sus scrofa, UniProt Q01580)", "T1 construct": "Cells with a known expression of the DTR were used from several species and origins; endogenous in cells; host or cells: LLC-PK1 (porcine kidney epithelial cells)", "assay": "Receptor-specific cell uptake, fluorescence in cell lysate", "format": "cell-based, porcine", "conditions": "LLC-PK1, 5 microgram per well, 2 hours", "description": "as §1"}, "[8]": {"assay": "Biodistribution of FITC conjugates", "conditions": "hamster, 90 minutes after i.v. injection, FIG. 4"}, "[9]": {"assay": "Plasma pharmacokinetics of FITC-labelled protein after intravenous bolus", "conditions": "hamster, i.v. 1 mg FITC-labelled protein, calculated sixty minutes after injection"}, "HRP-PEG-liposomes": {"biological_target": "T2, HRP-PEG-liposomes (UniProt P00433 31-338)", "T2 sequence (looked up)": "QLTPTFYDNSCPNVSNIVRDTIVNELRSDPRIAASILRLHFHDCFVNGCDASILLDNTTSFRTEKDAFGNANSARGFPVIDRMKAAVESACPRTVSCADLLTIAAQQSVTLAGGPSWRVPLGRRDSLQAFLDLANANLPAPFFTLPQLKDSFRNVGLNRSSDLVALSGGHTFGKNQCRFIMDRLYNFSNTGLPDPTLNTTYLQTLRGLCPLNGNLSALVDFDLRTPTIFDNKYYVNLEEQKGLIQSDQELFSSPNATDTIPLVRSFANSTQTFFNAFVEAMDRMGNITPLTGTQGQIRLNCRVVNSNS", "assay": "fluorescence microscopy of LLC-PK1 cells after 4 hours incubation"}, "[10]": {"biological_target": "T3, HRP-FITC (horseradish peroxidase labelled with FITC) (UniProt P00433 31-338)", "T3 construct": "also called HRP-FITC conjugate", "T3 sequence (looked up)": "T2 sequence (looked up)", "assay": "uptake by LLC-PK1 cells for 2 h, fluorescence of the cell lysate; fluorescence microscopy also showed no signal"}, "[11]": {"biological_target": "T3, HRP-FITC (horseradish peroxidase …)", "assay": "fluorescence microscopy of cells on coverslips"}, "[12]": {"conditions": "500 mg of probenecid every six hours"}},
  "note": "Residue numbers refer to the chain shown, from its start. Like-named read-outs stand apart in the source and are kept apart here.",
  "data": [
    {"molecule": "Nc1nc2c(ncn2COCCOP(=O)(O)OP(=O)(O)OP(=O)(O)O)c(=O)[nH]1", "note": "[Aciclo-GTP]", "values": [
      {"measurement": "affinity to viral relative to cellular polymerase", "setting": "viral DNA polymerase", "value": "approximately 100 times"},
      {"measurement": "half-life compared to GCV-TP in infected cells", "setting": "CMV-infected cells", "value": "four- to five-fold shorter"}
    ]},
    {"molecule": "Nc1nc2c(ncn2COCCO)c(=O)[nH]1", "note": "[Aciclovir]", "values": [
      {"measurement": "protein binding in plasma", "setting": "[1]; in vivo", "value": 30, "unit": "%"},
      {"measurement": "oral bioavailability", "setting": "[1]", "value": "10-20%"},
      {"measurement": "time of peak plasma concentration", "setting": "[1]; orally administered", "value": "1 to 2", "unit": "h"},
      {"measurement": "water solubility", "setting": "[2]", "value": "poorly water soluble"}
    ]},
    {"molecule": "CCOC(=O)C1=C[C@@H](OC(CC)CC)[C@H](NC(C)=O)[C@@H](N)C1", "note": "[Oseltamivir, (3R,4R,5S)-4-acetylamino-5-amino-3-(1-ethylpropoxy)-1-cyclohexene-1-carboxylic acid ethyl ester]", "values": [
      {"measurement": "change of half-life with probenecid", "setting": "[1]; [12]", "value": "doubled"},
      {"measurement": "change of peak plasma concentration (Cmax) with probenecid", "setting": "[1]; [12]", "value": "doubled"},
      {"measurement": "increase of overall systemic exposure (AUC) with probenecid", "setting": "[1]; [12]", "value": 2.5, "unit": "fold"},
      {"measurement": "(elimination) half-life", "setting": "[1]; in vivo", "value": "6 to 10", "unit": "h"},
      {"measurement": "oral bioavailability", "setting": "[1]", "value": 75, "unit": "%"}
    ]},
    {"molecule": "NC(=O)c1ncn([C@@H]2O[C@H](CO)[C@@H](O)[C@H]2O)n1", "note": "[RBV, 1-beta-D-ribofuranosyl-1,2,4-triazole-3-carboxamide]", "values": [
      {"measurement": "EC50", "setting": "YFV", "value": "12.3 ± 5.6", "unit": "mg/L"},
      {"measurement": "absorption from the GI tract with a fatty meal", "setting": "[1]; fatty meal", "value": "about 75%"},
      {"measurement": "absorption from the GI tract", "setting": "[1]; in vivo", "value": "about 45%"},
      {"measurement": "fraction of absorbed drug excreted into the urine unchanged", "setting": "[1]; in vivo", "value": "About a third"},
      {"measurement": "mean half-life for multiple doses in the body", "setting": "[1]; multiple doses", "value": "about 12 days"},
      {"measurement": "half-life after single dose", "setting": "[1]; single dose", "value": 0.5, "unit": "h"},
      {"measurement": "cell viability", "setting": "LLC-PK1 cells [3]", "value": 60, "unit": "%"}
    ]},
    {"molecule": "CC(=O)NC1C(NC(=N)N)C=C(C(=O)O)OC1C(O)C(O)CO", "note": "(centres unmarked) [Zanamivir, 5-acetamido-4-guanidino-6-(1,2,3-trihydroxypropyl)-5,6-dihydro-4H-pyran-2-carboxylic acid]", "values": [
      {"measurement": "(elimination) half-life", "setting": "[1]; in vivo", "value": "2.5 to 5.1", "unit": "h"},
      {"measurement": "protein binding in plasma", "setting": "[1]; in vivo", "value": "< 10", "unit": "%"},
      {"measurement": "oral bioavailability", "setting": "[1]", "value": 2, "unit": "%"},
      {"measurement": "reduction of time to symptom resolution", "setting": "influenza", "value": 1.5, "unit": "days"}
    ]},
    {"molecule": "Nc1nc(O)c2ncn(COC(CO)CO)c2n1", "note": "[ganciclovir]", "values": [
      {"measurement": "half-life", "setting": "[1]; depending on renal function", "value": "2 to 6", "unit": "h"},
      {"measurement": "elimination time in end-stage renal disease", "setting": "[1]; end-stage renal disease", "value": "over 24 hours"},
      {"measurement": "absorption of the oral form, fasting", "setting": "[1]; fasting", "value": "about 5%"},
      {"measurement": "concentration in the central nervous system relative to plasma level", "setting": "[1]; in vivo", "value": "about 50 % of the plasma level"},
      {"measurement": "plasma drug eliminated unchanged in the urine", "setting": "[1]; in vivo", "value": "About 90%"},
      {"measurement": "oral bioavailability", "setting": "[1]", "value": "approximately 5%"},
      {"measurement": "absorption of the oral form, with food", "setting": "[1]; with food", "value": "about 8%"}
    ]},
    {"molecule": "O=C([O-])c1ccccc1-c1c2ccc(=O)cc-2oc2cc([O-])ccc12.[Na+].[Na+]", "note": "[sodium fluorescein]", "values": [
      {"measurement": "fluorescence signal / uptake in cells", "setting": "LLC-PK1 cells [4]", "value": "No fluorescence signal was found"},
      {"measurement": "AUC", "setting": "[5]", "value": 13, "unit": "microgram*min/ml"},
      {"measurement": "half-life", "setting": "[5]", "value": 0.583, "unit": "h"}
    ]},
    {"molecule": "CRM197-FITC conjugate (from UniProt P00588 33-567) (ligand)", "values": [
      {"measurement": "cell uptake: CRM197-FITC in the cell lysate per mg cell protein after 2 hours (microgram per mg cell protein)", "setting": "[6]", "value": 0.54}
    ]},
    {"molecule": "HRP-FITC: horseradish peroxidase (HRP) labelled with FITC as a control protein", "values": [
      {"measurement": "conjugate found in the cell lysates", "setting": "[7]", "value": "No HRP-FITC was found"},
      {"measurement": "fluorescence signal / uptake in cells", "setting": "LLC-PK1 cells [4]", "value": "No fluorescence signal was found"},
      {"measurement": "accumulation in tissues (brain, heart, lung, liver, spleen, kidney)", "setting": "[8]", "value": "not (or hardly) detectable in these tissues"},
      {"measurement": "plasma half-life", "setting": "[9]", "value": 0.633, "unit": "h"}
    ]},
    {"molecule": "B1", "values": [
      {"measurement": "binding result", "setting": "HRP-PEG-liposomes", "value": "no binding"},
      {"measurement": "binding result", "setting": "[10]", "value": "no binding"}
    ]},
    {"molecule": "B2", "values": [
      {"measurement": "binding result", "setting": "[11]", "value": "no binding"}
    ]},
    {"molecule": "B3", "values": [
      {"measurement": "binding result", "setting": "[11]", "value": "no binding"}
    ]}
  ]
}
